From patent US6334995B1, “Process for the preparation of technetium-99m diethylene triamine penta-acetic acid diester” (Council of Scientific & Industrial Research, priority 1998, dated 2002)
Read-outs that look alike come from different tables or passages of the source.

Tests used:
[1] = cited from earlier work; for extraction efficiency: background statement; for Renal extraction: background comparison of MAG3 with iodine-131 orthoiodo-hippurate
[2] = Comparative biodistribution in mice; type: in vivo
Experimental: (§1) Biological evaluation of technetium-99m diethylenie triamine pentaacetic acid diester by comparative biodistribution with iodine-131 orthoiodo-hippurate and technetium-99m mercaptoacetylglycylglycylglyciine.
(§2) The comparative biodistribution experiment was undertaken in mice and rats. In mice either technetium-99m diethylene triamine pentaacetic acid diester or technetium-99m mercaptoacetylglycylglycylglycine were injected via the tail vein along with iodine-131 orthoiodo-hippurate. Rats were anaesthetised with urethane and the above radiochemicals were injected via the femoral vein. After predetermined time interval the animals were sacrificed and the organs were taken in the counting vial. Considerable care were exercised not to loose any urine during the process.

[3] = Renal plasma clearance in rats, single injection method; type: in vivo; conditions: plasma samples at 20 and 30 min, single compartment model
Experimental: (§3) Renal plasma clearance of technetium-99m diethylene triamine pentaacetic acid dimethyl ester was studied in rats by single injection method. Two plasma samples were collected at 20 and 30 min time point. The clearance was calculated using a single compartment model. Iodine-131 orthoiodo-hippurate was coinjected as standard. This experiment was also performed with technetium-99m mercaptoacetylglycylglycylglycine. […] The corresponding values in dog (10-12 kg) for technetiumn-99m diethylene triamine pentaacetic acid dimethyl ester and technetium-99m mercaptoacetylglycylglycylglycine along with coinjected hippurate were 72, 80 and 157 ml/min. These values are much higher than technetium-99m diethylene triamine pentaacetic acid in rats (0.82 ml/min 100 g) or dogs (43 ml/min).

[4] = type: in vivo; conditions: dog (10-12 kg)
Experimental: as §3

[5] = Comparative biodistribution in rats; type: in vivo; conditions: for Blood, percent dose per organ / Intestine, percent dose per organ / Kidney, percent dose per organ / Liver, percent dose per organ / Urine, percent dose per organ: rat; for hepatobiliary accumulation: conclusion from biodistribution in rats or mice or scintigraphic experiments on dog
Experimental: as §1, §2

[6] = background statement; cited from earlier work
[7] = background statement; cited from earlier work; remark: listed apart in the source

| Compound | Blood, percent dose per organ ([2]; 10 min post-injection) [percent dose per organ] | Intestine, percent dose per organ ([2]; 10 min post-injection) [percent dose per organ] | Kidney, percent dose per organ ([2]; 10 min post-injection) [percent dose per organ] | Liver, percent dose per organ ([2]; 10 min post-injection) [percent dose per organ] | Urine, percent dose per organ ([2]; 10 min post-injection) [percent dose per organ] | Blood, percent dose per organ ([2]; 30 min post-injection) [percent dose per organ] | Intestine, percent dose per organ ([2]; 30 min post-injection) [percent dose per organ] | Kidney, percent dose per organ ([2]; 30 min post-injection) [percent dose per organ] | Liver, percent dose per organ ([2]; 30 min post-injection) [percent dose per organ] | Urine, percent dose per organ ([2]; 30 min post-injection) [percent dose per organ] | Renal plasma clearance [3] [ml/min/100 g] | Renal plasma clearance [4] [mL/min] | Blood, percent dose per organ ([5]; 10 min post-injection) [percent dose per organ] | Intestine, percent dose per organ ([5]; 10 min post-injection) [percent dose per organ] | Kidney, percent dose per organ ([5]; 10 min post-injection) [percent dose per organ] | Liver, percent dose per organ ([5]; 10 min post-injection) [percent dose per organ] | Urine, percent dose per organ ([5]; 10 min post-injection) [percent dose per organ] | Blood, percent dose per organ ([5]; 30 min post-injection) [percent dose per organ] | Intestine, percent dose per organ ([5]; 30 min post-injection) [percent dose per organ] | Kidney, percent dose per organ ([5]; 30 min post-injection) [percent dose per organ] | other results |
| --- | --- | --- | --- | --- | --- | --- | --- | --- | --- | --- | --- | --- | --- | --- | --- | --- | --- | --- | --- | --- | --- |
| O=C(O)CNC(=O)c1ccccc1I [Orthoiodo-hippurate] | – | – | – | – | – | – | – | – | – | – | – | – | – | – | – | – | – | – | – | – | extraction efficiency [1]: 87% |
| Technetium-99m diethylene triamine pentaacetic acid [compound 4] | 14.66 ± 3.33 | 2.71 ± 0.20 | 2.57 ± 0.30 | 2.57 ± 0.47 | 35.48 ± 2.92 | 5.55 ± 1.22 | 3.12 ± 0.85 | 1.08 ± 0.03 | 1.02 ± 0.30 | 60.15 | 0.82 | 43 | 19.06 ± 2.37 | 3.65 ± 2.05 | 5.13 ± 1.00 | 4.91 ± 1.18 | 21.23 ± 1.61 | 7.08 ± 1.50 | 6.43 ± 1.42 | 2.78 ± 1.00 | extraction efficiency [1]: 20%; Liver, percent dose per organ ([5]; 30 min post-injection): 3.30 ± 0.79 percent dose per organ; Urine, percent dose per organ ([5]; 30 min post-injection): 43.32 percent dose per organ |
| technetium-99m diethylene triamine pentaacetic acid dimethyl ester [compound 2] | 7.27 ± 2.41 | 3.40 ± 0.25 | 3.36 ± 0.98 | 1.65 ± 0.11 | 46.39 ± 3.67 | 1.51 ± 0.53 | 1.67 ± 0.91 | 1.28 ± 0.52 | 1.22 ± 0.25 | 73.23 | 1.39 | 72 | 8.26 ± 0.75 | 2.19 ± 0.41 | 3.21 ± 0.29 | 2.14 ± 0.41 | 30.94 ± 3.40 | 3.49 ± 0.36 | 1.53 ± 0.10 | 1.47 ± 0.41 | hepatobiliary accumulation [5]: no hepatobiliary accumulation; Liver, percent dose per organ ([5]; 30 min post-injection): 0.91 ± 0.03 percent dose per organ; Urine, percent dose per organ ([5]; 30 min post-injection): 64.20 percent dose per organ |
| technetium-99m mercaptoacetylglycylglycylglycine [compound 3] | 6.60 ± 2.37 | 3.31 ± 0.40 | 4.32 ± 0.15 | 7.07 ± 0.82 | 48.34 ± 2.36 | 1.23 ± 0.26 | 5.82 ± 0.60 | 1.12 ± 0.25 | 4.36 ± 0.43 | 70.99 | 1.45 | 80 | 4.22 ± 0.40 | 4.94 ± 1.39 | 8.51 ± 1.54 | 3.37 ± 0.76 | 33.15 ± 6.30 | 2.31 ± 0.24 | 10.12 ± 0.88 | 2.99 ± 0.96 | accumulation in hepatobiliary system [6]: Unwanted accumulation in hepatobiliary system is observed; Renal extraction [1]: 53%; hepatobiliary accumulation [5]: appreciable amount; Liver, percent dose per organ ([5]; 30 min post-injection): 4.48 ± 1.48 percent dose per organ; Urine, percent dose per organ ([5]; 30 min post-injection): 63.50 percent dose per organ; protein binding [7]: 77% |
| O=C(O)CNC(=O)c1ccccc1[131I] [compound 1, Iodine-131 orthoiodo-hippurate] | 3.00 ± 1.29 | 2.16 ± 0.28 | 2.57 ± 1.05 | 2.47 ± 0.26 | 64.85 ± 2.74 | 1.41 ± 0.72 | 1.21 ± 0.47 | 0.59 ± 0.30 | 0.90 ± 0.14 | 80.38 | 2.68 | 157 | 5.61 ± 0.87 | 2.12 ± 0.41 | 3.72 ± 0.77 | 3.29 ± 1.14 | 48.92 ± 1.54 | 1.47 ± 0.28 | 1.92 ± 0.39 | 0.94 ± 0.20 | Renal extraction [1]: 79%; Liver, percent dose per organ ([5]; 30 min post-injection): 0.80 ± 0.12 percent dose per organ; Urine, percent dose per organ ([5]; 30 min post-injection): 79.80 percent dose per organ; protein binding [7]: 32% |
